This is an account of results in ChEMBL document CHEMBL2321809 (J Med Chem, 2013).

The Ki is the dissociation constant of the complex between target and ligand, obtained from inhibition or displacement. Lower therefore signals higher affinity. The term Km denotes the concentration of substrate that gives half-maximal velocity. For orientation: kcat means the number of substrate molecules converted per active site and unit of time at saturation. What is called kcat/Km is the second-order rate constant that governs catalysis at low substrate concentration. What is called MIC is the lowest concentration found to suppress growth.

The nature of assay [1]: Inhibition of Beta-lactamase SHV-1 K234R protein mutant in Escherichia coli DH10B by Henri-Michaelis-Menten steady state equation analysis.
The nature of assay [2]: Inhibition of wild type Beta-lactamase SHV-1 in Escherichia coli DH10B by Henri-Michaelis-Menten steady state equation analysis.
In assay [3] the test system is Escherichia coli. The experiment in a line: Selectivity ratio of Ki for Beta-lactamase SHV-1 in Escherichia coli DH10B to Ki for Beta-lactamase SHV-1 K234R protein mutant in Escherichia coli DH10B.
The subject of assay [4] is Escherichia coli. Briefly: Binding affinity to wild type Beta-lactamase SHV-1 in Escherichia coli DH10B assessed as melting temperature at 50 uM by circular dichroism analysis. In general terms: Circular dichroism is the unequal absorption of left and right circularly polarised light.
Assay [5] deals with Escherichia coli. Briefly: Binding affinity to Beta-lactamase SHV-1 K234R protein mutant in Escherichia coli DH10B assessed as melting temperature at 50 uM by circular dichroism analysis.
The subject of assay [6] is Escherichia coli. Briefly: Binding affinity to Beta-lactamase SHV-1 K234R protein mutant in Escherichia coli DH10B assessed as change in secondary structure at 50 uM by circular dichroism analysis.
The subject of assay [7] is Escherichia coli. Briefly: Binding affinity to wild type Beta-lactamase SHV-1 in Escherichia coli DH10B assessed as change in secondary structure at 50 uM by circular dichroism analysis.
The test system of assay [8] is Escherichia coli. The experiment in a line: Activity of Beta-lactamase SHV-1 K234R protein mutant in Escherichia coli DH10B by Henri-Michaelis-Menten steady state equation analysis.
The subject of assay [9] is Escherichia coli. The experiment in a line: Activity of wild type Beta-lactamase SHV-1 in Escherichia coli DH10B by Henri-Michaelis-Menten steady state equation analysis.
Assay [10] has as its system Escherichia coli. The experiment in a line: Ratio of Kcat to Km for wild type Beta-lactamase SHV-1 in Escherichia coli DH10B.
Assay [11] relates to Escherichia coli. Briefly: Ratio of Kcat to Km for Beta-lactamase SHV-1 K234R protein mutant in Escherichia coli DH10B.
The subject of assay [12] is Escherichia coli. The experiment in a line: Antimicrobial activity against Escherichia coli DH10B expressing Beta-lactamase SHV-1 K234R protein mutant by CLSI agar dilution method. The assay is classed as functional. A general note: In agar dilution, organisms are placed on agar that contains the substance at set levels.
The test system of assay [13] is Escherichia coli. The experiment in a line: Antimicrobial activity against Escherichia coli DH10B expressing Beta-lactamase SHV-1 K234X protein mutant by CLSI agar dilution method. The assay is classed as functional.
In assay [14] the test system is Escherichia coli. Briefly: Antimicrobial activity against Escherichia coli DH10B by CLSI agar dilution method. The assay is classed as functional.
Assay [15] deals with Escherichia coli. The experiment in a line: Antimicrobial activity against Escherichia coli DH10B expressing Beta-lactamase SHV-1 K234A protein mutant by CLSI agar dilution method. It is filed as functional.
Assay [16] has as its system Escherichia coli. The experiment in a line: Antimicrobial activity against Escherichia coli DH10B expressing wild type Beta-lactamase SHV-1 by CLSI agar dilution method. The assay is classed as functional.
Assay [17] concerns Escherichia coli. The experiment in a line: Antimicrobial activity against Escherichia coli DH10B expressing wild type Beta-lactamase SHV1 gene by CLSI agar dilution method in presence of ampicillin. It is filed as functional.
The test system of assay [18] is Escherichia coli. Briefly: Antimicrobial activity against Escherichia coli DH10B by CLSI agar dilution method in presence of ampicillin. It is filed as functional.
For assay [19], the system named is Escherichia coli. Briefly: Antimicrobial activity against Escherichia coli DH10B expressing Beta-lactamase SHV K234R mutant by CLSI agar dilution method in presence of ampicillin. It is filed as functional.
Assay [20] relates to Escherichia coli. Briefly: Antimicrobial activity against Escherichia coli DH10B expressing Beta-lactamase SHV K234A mutant by CLSI agar dilution method in presence of ampicillin. The assay is classed as functional.
Assay [21] has as its system Escherichia coli. Briefly: Antimicrobial activity against Escherichia coli DH10B expressing Beta-lactamase SHV K234X mutant by CLSI agar dilution method in presence of ampicillin. It is filed as functional.

In brackets after ≈: the same amount, converted by molar mass. Activity calls are given as the source filed them. No cut-off for these calls is given here.

As to `O=C(Cc1cccs1)N[C@@H](Cc1cccc(C(=O)O)c1)B(O)O`, the Ki in assay [1] worked out at 12 nM; in assay [2], 460 nM.
As for `CCOc1ccc2ccccc2c1C(=O)N[C@@H](Cc1cccc(C(=O)O)c1)B(O)O`, the values for the Ki in [1] and in assay [2] were 48 nM and 37 nM, respectively.
Turning to `N[C@@H](C(=O)N[C@@H](Cc1cccc(C(=O)O)c1)B(O)O)c1ccccc1`, the inhibitory constant (Ki) in assay [1] came out at 2.4 nM; in assay [2], 56 nM. For the same compound, the Ratio Ki in assay [3] worked out at 20. Moreover, the Tm in assay [4] is 61.4 °C; in assay [5], 54.8 °C.
Take `CCN1CCN(C(=O)N[C@@H](C(=O)N[C@@H](Cc2cccc(C(=O)O)c2)B(O)O)c2ccc(O)cc2)C(=O)C1=O`: the figures for the inhibitory constant (Ki) in assay [1] and in [2] were 13.5 nM and 9.3 nM, respectively.
For the compound `O=C(Cc1cccs1)NCB(O)O`, the inhibition constant (Ki) in assay [1] was found to be 61000 nM; in assay [2] it was 20000 nM. In assay [6], the inhibition entry is “inactive”. Moreover, the inhibition entry in assay [7] was “Active”. For the same compound, the Tm in assay [4] amounted to 55.1 °C; in assay [5], 48.9 °C.
Take `O=C(Cc1cccs1)N[C@@H]1C(=O)N2C(C(=O)O)=C(/C=C/c3ccc([N+](=O)[O-])cc3[N+](=O)[O-])CS[C@H]12`: the Km in [8] was determined as 10.4 µM; in assay [9] it was 24.7 µM. Also, the kcat came to 45.2 s⁻¹ in [8] and 348 s⁻¹ in assay [9]. For the same compound, the figures for the kcat/Km in assay [10] and in [11] were 1.41e+07 M⁻¹ s⁻¹ and 4.3e+06 M⁻¹ s⁻¹, respectively.
As for `CC1(C)S[C@@H]2[C@H](NC(=O)[C@H](N)c3ccccc3)C(=O)N2[C@H]1C(=O)O` [AMPICILLIN], the MIC in [12] was 16400 µg/mL (≈ 46900 µM); in assay [13], 4 µg/mL (≈ 11.4 µM); in assay [14], 1 µg/mL (≈ 2.86 µM); in assay [15], 32 µg/mL (≈ 91.6 µM); in [16], above 16400 µg/mL.
As for `CC(=O)OCC1=C(C(=O)O)N2C(=O)[C@@H](NC(=O)Cc3cccs3)[C@H]2SC1` [CEPHALOTHIN], the Michaelis-Menten constant (Km) in [8] worked out at 29 µM; in [9], 48.9 µM. Also, the kcat in [9] was found to be 42.6 s⁻¹. For the same compound, the minimal inhibitory concentration (MIC) in [12] came out at 16 µg/mL (≈ 40.4 µM); in assay [13], 8 µg/mL (≈ 20.2 µM); in assay [14], 2 µg/mL (≈ 5.04 µM); in [15], 8 µg/mL (≈ 20.2 µM); in assay [16], 256 µg/mL (≈ 646 µM). In assay [10], the kcat/Km stood at 870000 M⁻¹ s⁻¹.
Turning to `O=C(O)[C@H]1/C(=C/CO)O[C@@H]2CC(=O)N21` [CLAVULANIC ACID], the results for the MIC in assay [17], in assay [18] and in assay [19] were 4 µg/mL, below 0.06 µg/mL and 16 µg/mL, respectively. Also, the inhibition entry in [6] and in assay [7] was “Active” in each case. The values for the Tm in [4] and in assay [5] were 55 °C and 46.1 °C, respectively.
Regarding `CCN1CCN(C(=O)N[C@@H](C(=O)N[C@@H]2C(=O)N3[C@@H]2SC(C)(C)[C@@H]3C(=O)O)c2ccccc2)C(=O)C1=O` [PIPERACILLIN], the Km in assay [8] was determined as 305 µM; in assay [9], 74.6 µM. Further, the kcat in [9] turned out to be 1180 s⁻¹. For the same compound, the MIC was 2050 µg/mL (≈ 3960 µM) in assay [12]; 4 µg/mL (≈ 7.73 µM) in assay [13]; 1 µg/mL (≈ 1.93 µM) in assay [14]; 8 µg/mL (≈ 15.5 µM) in assay [15]; above 4100 µg/mL in assay [16]. In addition, the catalytic efficiency (kcat/Km) in assay [10] was 1.58e+07 M⁻¹ s⁻¹.
For the compound `CC1(C)[C@H](C(=O)O)N2C(=O)C[C@H]2S1(=O)=O` [SULBACTAM], the MIC was 512 µg/mL in assay [17]; below 0.06 µg/mL in assay [18]; 64 µg/mL in assay [19]; below 0.06 µg/mL in assay [20]; below 0.06 µg/mL in [21]. Moreover, the inhibition entry in [6] is “inactive”. The inhibition entry in [7] was “Active”. The Tm in [4] was found to be 54.4 °C.
Turning to `C[C@]1(Cn2ccnn2)[C@H](C(=O)O)N2C(=O)C[C@H]2S1(=O)=O` [TAZOBACTAM], the MIC was 128 µg/mL in assay [17]; below 0.06 µg/mL in [18]; 16 µg/mL in assay [19]; below 0.06 µg/mL in [20]; below 0.06 µg/mL in assay [21]. Further, in [6], the inhibition entry was “inactive”. Besides, the inhibition result in assay [7] was “Active”. In addition, the Tm worked out at 54.4 °C in assay [4] and 49 °C in assay [5].
